Test results as given in patent US20120132797A1, “MEANS AND METHODS FOR DIAGNOSING THYROID DISORDERS” (BASF SE, priority 2009, published 2012).

Tested on: Wistar (Crl:WI(Han)) rats
Assay: Mass spectrometry-based plasma metabolite profiling of rats treated with known inducers of thyroid function impairment
Format: in vivo, rat
Conditions: female rats, ratio of group medians vs controls, Table 3
In short: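 Rats aged 10-11 weeks, 5/sex/dose vs 10/sex controls, dosed at low and high levels; retro-orbital plasma taken under isoflurane on days 7, 14 and 28 after 16-20 h fast. Polar and non-polar fractions profiled by GC-MS (derivatised) and LC-MS/MS (MRM plus full scan), normalised to pool samples; Welch t-test by sex and day gives p-values and median ratios.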

SMILES: Cc1ncc[nH]1 [2-Methylimidazole]
- Arachidonic acid (C20:cis[58,11,14]4) (fh7 (study day 7)): 1.04
- Behenic acid (C22:0) (fh7 (study day 7)): 1.34
- Cholesterol (fh7 (study day 7)): 1.14
- Cysteine (fh7 (study day 7)): 0.70
- Docosahexaenoic acid (C22:cis[4,7,10,13,16,19]6) (fh7 (study day 7)): 1.37
- Dodecanol (fh7 (study day 7)): 1.06
- Eicosanoic acid (C20:0) (fh7 (study day 7)): 1.06
- Glycerol phosphate (fh7 (study day 7)): 1.21
- Heptadecanoic acid (C17:0) (fh7 (study day 7)): 1.14
- Linoleic acid (C18:cis[9,12]2) (fh7 (study day 7)): 1.19
- Nervonic acid C24:(cis[15]1) (fh7 (study day 7)): 1.11
- Palmitic acid (C16:0) (fh7 (study day 7)): 1.21
- Sphingomyelin (d18:1, C16:0) (fh7 (study day 7)): 1.34
- Stearic acid (C18:0) (fh7 (study day 7)): 0.99
- Threonic acid (fh7 (study day 7)): 1.45
- dihomo-gamma-Linolenic acid (C20:cis[8,11,14]3) (fh7 (study day 7)): 0.83
- erythro-Sphingosine (fh7 (study day 7)): 1.38
- gamma-Linolenic acid (C18:cis[6,9,12]3) (fh7 (study day 7)): 0.91
- myo-Inositol-2-phosphate (fh7 (study day 7)): 1.61
- threo-Sphingosine (fh7 (study day 7)): 1.28
- Arachidonic acid (C20:cis[58,11,14]4) (fh14 (study day 14)): 1.20
- Behenic acid (C22:0) (fh14 (study day 14)): 1.25
- Cholesterol (fh14 (study day 14)): 1.41
- Cysteine (fh14 (study day 14)): 0.63
- Docosahexaenoic acid (C22:cis[4,7,10,13,16,19]6) (fh14 (study day 14)): 1.42
- Dodecanol (fh14 (study day 14)): 1.11
- Eicosanoic acid (C20:0) (fh14 (study day 14)): 1.34
- Glycerol phosphate (fh14 (study day 14)): 1.26
- Heptadecanoic acid (C17:0) (fh14 (study day 14)): 1.27
- Linoleic acid (C18:cis[9,12]2) (fh14 (study day 14)): 1.27
- Nervonic acid C24:(cis[15]1) (fh14 (study day 14)): 1.52
- Palmitic acid (C16:0) (fh14 (study day 14)): 1.30
- Sphingomyelin (d18:1, C16:0) (fh14 (study day 14)): 1.26
- Stearic acid (C18:0) (fh14 (study day 14)): 1.02
- Threonic acid (fh14 (study day 14)): 1.26
- dihomo-gamma-Linolenic acid (C20:cis[8,11,14]3) (fh14 (study day 14)): 1.53
- erythro-Sphingosine (fh14 (study day 14)): 1.61
- gamma-Linolenic acid (C18:cis[6,9,12]3) (fh14 (study day 14)): 1.67
- myo-Inositol-2-phosphate (fh14 (study day 14)): 1.60
- threo-Sphingosine (fh14 (study day 14)): 1.63
- Arachidonic acid (C20:cis[58,11,14]4) (fh28 (study day 28)): 1.36
- Behenic acid (C22:0) (fh28 (study day 28)): 1.34
- Cholesterol (fh28 (study day 28)): 1.55
- Cysteine (fh28 (study day 28)): 0.76
- Docosahexaenoic acid (C22:cis[4,7,10,13,16,19]6) (fh28 (study day 28)): 1.27
- Dodecanol (fh28 (study day 28)): 1.05
- Eicosanoic acid (C20:0) (fh28 (study day 28)): 1.15
- Glycerol phosphate (fh28 (study day 28)): 1.26
- Heptadecanoic acid (C17:0) (fh28 (study day 28)): 1.38
- Linoleic acid (C18:cis[9,12]2) (fh28 (study day 28)): 1.21
- Nervonic acid C24:(cis[15]1) (fh28 (study day 28)): 1.74
- Palmitic acid (C16:0) (fh28 (study day 28)): 1.44
- Sphingomyelin (d18:1, C16:0) (fh28 (study day 28)): 1.27
- Stearic acid (C18:0) (fh28 (study day 28)): 1.17
- Threonic acid (fh28 (study day 28)): 0.98
- dihomo-gamma-Linolenic acid (C20:cis[8,11,14]3) (fh28 (study day 28)): 1.26
- erythro-Sphingosine (fh28 (study day 28)): 1.69
- gamma-Linolenic acid (C18:cis[6,9,12]3) (fh28 (study day 28)): 2.30
- myo-Inositol-2-phosphate (fh28 (study day 28)): 1.70
- threo-Sphingosine (fh28 (study day 28)): 1.66
